As usually defined, the IC50 is the midpoint of a concentration-inhibition curve. Read a high IC50 as lower potency. The MIC is the least concentration at which growth counts as inhibited.

One assay relates to L929. The assay can be described thus: Growth inhibition of mouse L929 cells after 5 days by MTT assay. It counts as cell-based. To be noted: L929, 120 h. In general terms: Tetrazolium assays rely on reduction of a dye to a coloured formazan, in cell work by metabolically active cells.
Assay [1] can be described thus: Growth inhibition of human KB-3-1 cells after 5 days by MTT assay. It counts as functional, cell-based. As to conditions: KB 3-1, 120 h.
Assay [2] in a line: Growth inhibition of rat kangaroo PtK2 cells after 5 days by MTT assay. Format: cell-based. To be noted: Potorous tridactylus, PtK2, 120 h.
The subject of a further assay is NHDF. Description: Growth inhibition of human NHDF cells after 5 days by MTT assay. Format: cell-based. As to conditions: 120 h.
The next assay deals with HUVEC. Description: Antiangiogenic activity against human HUVEC cells assessed as suppression of tube formation after 20 hrs incubation by calcein staining-based fluorescent microscopy. Format: functional, cell-based.
Another assay deals with PtK2. The assay can be described thus: Disruption of microtubule network in potoroo PtK2 cells at 10 ug/mL after 16 hrs by immunofluorescence staining method. To be noted: Potorous tridactylus. It counts as cell-based.
Another assay has as its system PC-3. Description: Growth inhibition of human PC3 cells after 5 days by MTT assay. It counts as functional, cell-based. As to conditions: PC-3, 120 h.
For the next assay, the target named is Tubulin (Sus scrofa) (UniProt P02554+P02550). The assay can be described thus: Inhibition of pig porcine tubulin polymerization at 25 ug/mL by turbidimetric method. It counts as protein assay. As to conditions: at 25 µg/mL.

In brackets after ≈: the same amount, converted by molar mass. Activity calls are given as the source filed them. No cut-off for these calls is given here.

Sequence of Tubulin (Sus scrofa) (P02550 whole entry, looked up): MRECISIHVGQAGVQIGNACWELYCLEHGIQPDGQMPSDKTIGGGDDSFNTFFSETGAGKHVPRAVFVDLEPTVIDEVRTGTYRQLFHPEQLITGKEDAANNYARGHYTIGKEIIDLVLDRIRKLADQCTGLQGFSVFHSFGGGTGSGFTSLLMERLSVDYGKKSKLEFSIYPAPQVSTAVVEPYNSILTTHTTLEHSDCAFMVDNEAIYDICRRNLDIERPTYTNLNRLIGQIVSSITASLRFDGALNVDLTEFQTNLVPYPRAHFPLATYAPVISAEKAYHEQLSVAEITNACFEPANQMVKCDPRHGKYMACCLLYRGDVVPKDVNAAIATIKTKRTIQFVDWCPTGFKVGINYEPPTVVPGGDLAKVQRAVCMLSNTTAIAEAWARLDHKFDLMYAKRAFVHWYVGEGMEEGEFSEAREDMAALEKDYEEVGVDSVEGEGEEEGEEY
Sequence of Tubulin (Sus scrofa) (P02554 whole entry, looked up): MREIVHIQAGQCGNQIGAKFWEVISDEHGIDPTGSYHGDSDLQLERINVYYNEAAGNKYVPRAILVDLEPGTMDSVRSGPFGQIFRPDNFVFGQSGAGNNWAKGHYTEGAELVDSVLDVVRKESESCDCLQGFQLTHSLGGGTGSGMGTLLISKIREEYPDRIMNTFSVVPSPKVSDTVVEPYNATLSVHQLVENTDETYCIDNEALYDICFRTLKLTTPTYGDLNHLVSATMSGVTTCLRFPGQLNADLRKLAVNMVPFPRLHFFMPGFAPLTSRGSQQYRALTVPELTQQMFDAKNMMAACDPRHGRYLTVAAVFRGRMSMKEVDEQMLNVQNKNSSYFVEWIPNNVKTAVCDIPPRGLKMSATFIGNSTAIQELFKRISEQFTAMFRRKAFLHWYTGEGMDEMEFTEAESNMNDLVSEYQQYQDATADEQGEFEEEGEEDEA

On to `COc1ccc(-c2c(-c3cc(Cl)c(OC)c(OC)c3)ncn2C)cc1N`, for which the half-maximal inhibitory concentration (IC50) came out at 135 nM in the assay on L929, 16 nM in assay [1], 70 nM in assay [2] and 970 nM in the assay with NHDF. Besides, the MIC with HUVEC is 70 nM (≈ 0.0262 µg/mL). In addition, the result with PtK2 was Active.

With `COc1ccc(-c2ncn(C)c2-c2cc(I)c(OC)c(OC)c2)cc1F`, the concentration for half-maximal inhibition (IC50) in the assay on L929 was found to be 40 nM; in assay [1], 90 nM; in assay [2], 180 nM; with NHDF, 40 nM. Moreover, in the assay with PtK2, the outcome was Active.

As for `COc1ccc(-c2c(-c3cc(OC)c(OC)c(OC)c3)ncn2C)cc1N`, the IC50 with L929 was found to be 220 nM; in assay [1], 70 nM; in the assay on PC-3, 90 nM; in assay [2], 450 nM; in the assay with NHDF it was 140 nM. In the assay with HUVEC, the MIC was 290 nM (≈ 0.107 µg/mL). Also, the inhibition result at Tubulin (Sus scrofa) was “Active”. In addition, the result in the assay with PtK2 was Active.

Consider `COc1ccc(-c2ncn(C)c2-c2cc(Cl)c(OC)c(Cl)c2)cc1F`, for which the IC50 was found to be 2400 nM in the assay on L929, 1150 nM in assay [1], 4300 nM in assay [2] and 7180 nM in the assay with NHDF. Besides, the outcome in the assay with PtK2 was Active.

On to `COc1ccc(-c2ncn(C)c2-c2cc(Br)c(OC)c(Br)c2)cc1F`, for which the IC50 in the assay on L929 was determined as 4400 nM; in assay [1] it was 14 nM; in the assay with PC-3 it was 10 nM; in assay [2], 1200 nM; in the assay with NHDF, 400 nM. Moreover, the MIC in the assay on HUVEC is 270 nM (≈ 0.127 µg/mL). The inhibition entry on Tubulin (Sus scrofa) was “Active”. The outcome in the assay with PtK2 was Active.

Consider `COc1ccc(-c2ncn(C)c2-c2cc(F)c(OC)c(OC)c2)cc1F`, for which the half-inhibitory concentration (IC50) with L929 amounted to 10000 nM; in assay [1] it was 2000 nM; in the assay on PC-3, 1800 nM; in assay [2], 5000 nM; with NHDF it was 7600 nM. The MIC with HUVEC is 10000 nM (≈ 3.6 µg/mL). Further, in the assay with PtK2, the result was Active.

For `COc1ccc(-c2ncn(C)c2-c2cc(I)c(OC)c(I)c2)cc1F`, the IC50 in the assay on L929 is 18 nM; in assay [1], 3 nM; with PC-3 it was 3 nM; in assay [2], 330 nM; with NHDF it was 3300 nM. For the same molecule, in the assay on HUVEC, the MIC was 80 nM (≈ 0.0451 µg/mL). Besides, the inhibition result on Tubulin (Sus scrofa) was “Active”. Further, the result in the assay on PtK2 was Active.

With `COc1ccc(-c2ncn(C)c2-c2cc(Br)c(OC)c(OC)c2)cc1F`, the IC50 was 25 nM in the assay on L929; 5 nM in assay [1]; 70 nM with PC-3; 440 nM in assay [2]; 175 nM with NHDF. The MIC in the assay with HUVEC was 110 nM (≈ 0.0463 µg/mL). Besides, at Tubulin (Sus scrofa), the inhibition entry was “Active”. Further, the outcome in the assay on PtK2 was Active.

As to `COc1ccc(-c2ncn(C)c2-c2cc(Cl)c(OC)c(OC)c2)cc1F`, the IC50 in the assay on L929 turned out to be 220 nM; in assay [1], 190 nM; in assay [2], 480 nM; with NHDF it was 240 nM. Also, the outcome in the assay with PtK2 was Active.

Consider `COc1ccc(-c2ncn(C)c2-c2cc(F)c(OC)c(F)c2)cc1F`, for which the IC50 amounted to 31000 nM with L929; 21000 nM in assay [1]; 16000 nM in the assay with PC-3; 23000 nM in assay [2]; 52000 nM in the assay on NHDF. For the same molecule, the MIC with HUVEC is 27000 nM (≈ 9.4 µg/mL). Further, the inhibition result on Tubulin (Sus scrofa) is “inactive”. Also, the result with PtK2 was inactive.

Source of the values: ChEMBL document CHEMBL1909605, “Cytotoxic and antivascular 1-methyl-4-(3-fluoro-4-methoxyphenyl)-5-(halophenyl)-imidazoles” (Bioorg Med Chem Lett, 2011).
